# Key:
# [1] = test system: adenosine monophosphate-activated protein kinase (AMPK); assay: Activation of AMPK (p-AMPK/AMPK, Western blotting) in adipocyte model 3T3-L1; type: cell-based, mouse; conditions: 3T3-L1 adipocytes; HPH-15 at 1/200th the concentration of metformin (2 mM); 24 hours
# Text: The tissues involved in glucose uptake and glucose metabolism are mainly the muscle, the liver, and the fat. Thus, using a cell model of each tissue, the relationship between HPH-15 and activation of adenosine monophosphate-activated protein kinase (AMPK) was examined. Note that AMPK is known as a therapeutic target for diabetes. AMPK acts as an energy sensor, and when it detects a decrease in ATP serving as an intracellular energy source, it suppresses the synthesis of glucose, fats, and proteins and produces ATP. Exercise therapy for diabetes is based on this mechanism. Further, AMPK has been drawing attention as a factor that improves insulin resistance.
# As a muscle cell model to be used, rat myoblast cell line L6-GLUT4myc (myoblasts expressing myc-tagged GLUT4) was cultured in a minimal essential medium a-MEM (10% FBS) and differentiated into myotubes. Differentiation into myotubes was performed by culturing L6-GLUT4 cells in a-MEM (10% FBS) and then changing the medium to a-MEM (2% FBS), followed by culturing for 6 days. Human HepG2 cell line was used as a liver cell model. As an adipocyte model to be used, mouse 3T3-L1 preadipocyte cell line was differentiated into adipocytes. Differentiation into adipocytes was performed as follows. […]
# Next, bands of AMPK and p-AMPK were quantified using ImageJ to determine a ratio of activated AMPK relative to AMPK (p-AMPK/AMPK).
# [2] = test system: liver cell model HepG2 cells; assay: Neutral fat accumulation (Oil Red O) in presence of glucose; type: cell-based, human; conditions: HPH-15 50 μM vs metformin 2 mM, glucose 100 mM, 24 hours
# Protocol: Many patients with type 2 diabetes have fat accumulation in the visceral organs.
# The liver cell model HepG2 cells used in Example 1 were seeded onto a 24-well plate (1×10^5 cells/well, […] of culture liquid) and cultured overnight. Then, a DMSO solution (1%) containing HPH-15 (final concentration: 50 μM) or metformin (final concentration: 2 mM) was added to the medium, and the cells were further cultured for 24 hours. As a control, only DMSO solution (1%) was added, and the cells were cultured for 24 hours in the same manner. Next, glucose (100 mM) was added to the medium, and the cells were further cultured for 24 hours. Then, the cells were fixed using 4% paraformaldehyde for 10 minutes. The fixed cells were added with an Oil Red O staining solution (Nacalai Tesque, Inc.) and shaken for 15 minutes. After washing with a 60% aqueous isopropanol solution, cell images were observed using a microscope. Further, the amount of neutral fat in the cells was determined by dissolving the stained cells in 100% isopropanol and measuring the absorbance (492 nm).
# [3] = test system: myotube cell model L6-GLUT4myc; assay: Cytotoxicity (MTT reagent); type: cell-based, rat; conditions: HPH-15 1 μM, 10 μM or 50 μM, 24 hours
# Protocol: (§1) It was examined whether using HPH-15 as a drug caused any cytotoxicity.
# (§2) The myotube cell model L6-GLUT4myc, the liver cell model HepG2 cells, and the adipocyte model 3T3-L1 used in Example 1 were each seeded onto a 24-well plate (1×10^5 cells/well, […] of culture liquid) and cultured overnight. Then, a DMSO solution (1%) containing HPH-15 (final concentration: 1 μM, 10 μM or 50 μM) was added to the medium, and the cells were further cultured for 24 hours. As a control, only DMSO solution (1%) was added, and the cells were cultured for 24 hours in the same manner. Next, […] of MTT reagent (3-(4,5-dimethyl-2-thiazolyl)-2,5-diphenyl-2H-tetrazolium bromide: 1.1 mg/mL: Dojindo Laboratories) was added to each well, and the cells were further cultured for 4 hours. After collecting the precipitated crystals, the supernatant was removed and DMSO ([…]) was added to completely dissolve the crystals. Cytotoxicity was evaluated by measuring the absorbance (550 nm) of the solution and determining the number of viable cells.
# [4] = test system: adipocyte model 3T3-L1; assay: Cytotoxicity (MTT reagent); type: cell-based, mouse; conditions: HPH-15 1 μM, 10 μM or 50 μM, 24 hours
# Protocol: as §1, §2
# [5] = test system: high-fat diet-induced obesity model mice; assay: Blood test value in mouse; type: in vivo; conditions: HPH-15 10 or 100 mg/kg orally 28 days
# Protocol: High-fat diet-induced obesity model mice were prepared in the same manner as in Example 7. Then, […] of olive oil (Kenei Pharmaceutical Co., Ltd.) as a solvent, HPH-15 (10 mg/kg or 100 mg/kg, […]) dissolved in olive oil, or metformin (300 mg/kg, […]) was orally administered once a day for 28 days. After administration of each for 28 days, the blood from the high-fat diet-induced obesity model mice was examined at the Kumamoto Mouse Clinic (Kumamoto National University Corp.).
# [6] = compared with metformin 300 mg/kg
structure (smiles),measurement,setting,value
CC(C)(C)SCCNC(=S)c1cccc(C(=S)NCCSC(C)(C)C)n1 [HPH-15],AMPK activation (p-AMPK/AMPK) compared to when metformin was used,[1],approximately 170%
same,neutral fat accumulation,[2],had an inhibitory effect on neutral fat accumulation in the presence of high glucose in the same manner as metformin
same,cytotoxicity (number of viable cells),[3],no cytotoxicity was confirmed
same,cytotoxicity (number of viable cells),[4],no cytotoxicity was confirmed
same,toxicity (blood test),[5],No toxicity was observed
same,other blood test items,[5]; compared to olive oil,no differences were observed
same,ALT value (blood test),[5]; [6],lower than that of metformin
same,AST value (blood test),[5]; [6],significantly lower than those of metformin
same,LD value (blood test),[5]; [6],significantly lower than those of metformin

# Source: patent US20260000655A1, “PHARMACEUTICAL COMPOSITION FOR USE IN PREVENTION OR TREATMENT OF LIFESTYLE-RELATED DISEASE” (priority 2022, published 2026)
